# Measured values: patent US10717981B2, “Therapeutic compositions and methods of making and using the same” (Advanced ReGen Medical Technologies, LLC, priority 2018, dated 2020)
# How the values were obtained:
# [1] = system: aged cells; test: Clonogenic assay (CFU-GM) of aged cells after miRNA mimic, siRNA or exosome treatment; type: cell-based, human; conditions: overexpression of candidate miRNAs in aged isochronic cultures, vs negative control RNA
# From the text: Aged TNCs (10×10^6 cells per sample) were nucleofected with microRNA mimics (Qiagen), miRNA inhibitors (Qiagen), negative control siRNA (Qiagen), negative control miRNA inhibitor (Qiagen) or downstream target candidate siRNAs (Origene) using the Amaxa P3 Primary Cell 4D-Nucleofector X Kit (Lonza) on a 4D Nucleofector device (Lonza), according to manufacturer's specific protocol. Briefly, for nucleofection of CD34+ cells used in clonogenic assays, cells were nucleofected with 60 nmol total miRNA mimics, miRNA inhibitors or siRNA using the “human CD34+ cell” program. For nucleofection of T cells used in T cell activation and cell-mediated cytotoxicity assays, cells were nucleofected with 240 nmol total miRNA mimics, miRNA inhibitors or siRNA using the “human unstimulated T cell, high functionality” program.
# [2] = system: exosomes of heterochronic cultures; test: Exosome production and RNA content in heterochronic culture with AGO2 inhibitor; type: cell-based, human
# Method: Exosomes were isolated from cell culture media by the Total Exosome Isolation Kit (Life Technologies), using a modified version of the manufacturer's protocol. Briefly, 7-day isochronic and heterochronic cultures were established with Exosome-depleted FBS Media Supplement (System Biosciences), and culture media collected on the 4th and 7th days. Cells were pelleted and supernatant transferred to another tube for further clarification at 2000 g for 30 min to remove residual cells and debris. The remaining supernatant was transferred to a fresh tube and 0.5 volumes of Total Exosome Isolation reagent added for overnight incubation at 4° C. The following day samples were centrifuged at 10,000 g for 1 hr at 4° C. to pellet the exosomes for subsequent nanoparticle tracking analysis (NTA) or long-term storage at −80° C. […] For NTA, exosomes were re-suspended in 0.5 mL of PBS and measured using the following parameters: Temperature=25.6+/−0.5° C.; Viscosity=(Water) 0.99+/−0.01 cP; Measurement time=30 sec; Syringe pump speed=30. […]
# Total RNA from exosomes and cells was isolated using the miRCURY RNA Isolation Kit (Exiqon) with small and large RNAs fractionated with the RNeasy MinElute Cleanup Kit (Qiagen), both according to manufacturer's recommended specifications. […] Mapped reads from individual samples were then compared to determine fold change for each miRNA. […]
# [3] = system: aged MPB
# Method: TNC vials were quickly thawed at 37° C. and cells added dropwise 1:10 to pre-warmed RPMI-1640 equilibration solution containing 5% HSA, 30 U/mL DNase I (Sigma), 5 mM MgCl2 and 5 mM CaCl2), and incubated at 37° C. for 3-4 hrs. After equilibration, cells were pelleted, washed in RPMI-1640 with 2% BSA and resuspended in complete media containing 10% FBS. Cells were seeded at densities of 10 or 30×10^6 cells/well in 12- or 6-well plates, respectively, containing 0.4 μm transwell inserts (BD Falcon). Heterochronic cultures were established with young cells in the upper chamber and aged cells in the lower chamber. Cells were incubated at 37° C. for 7 days, with 15% of culture media replenished with fresh media on the 4th day. On the 7th day, cells were harvested by centrifugation and evaluated.
# Non-adherent cells from LTC-IC assays, as well as cells from isochronic and heterochronic cultures, were studied for progenitors in short-term methylcellulose culture using a CFU-GM readout. Briefly, cultures were initiated by seeding 150 cells/mm^2 in clonogenic media containing 3 U/mL of rhGM-CSF (R&D Systems). After 10 days, cultures were scored by a single blinded observer, and colonies enumerated for CFU-GM.
# [4] = system: restored cells; test: Transwell co-culture of donor and receiver cell samples in presence or absence of manumycin; type: cell-based, human
# From the text: Receiver cell samples (i.e., R1, R2, and R3) were individually paired with donor cell samples (i.e., D1, D2, and D3) and the pairs co-cultured in a transwell culture cell for four weeks. The morphology of the cells was studied at 2 weeks into the co-culture and at 4 weeks of co-culture. Gene expression arrays, protein arrays, and telomere length experiments compared freshly defrosted cells from the collection tubes (referred to as the baseline donor cell sample or baseline receiver cell sample) with cells at the 4-week study endpoint (referred to as restored cell samples).
# Protein array analyses were carried out using conditioned media from the baseline donor cell sample or baseline receiver cell sample. The conditioned media was mixed with like cellular protein extracts and applied to the custom-designed arrays which consisted of antibody probes for 68 factors linked to cellular aging and senescence, collectively referred to as the senescence-associated secretory factors (SASF). Quantitative PCR gene array analyses were carried out by extracting RNA from the baseline samples or the co-cultured donor and receiver samples. The data presented represents the average metric determined for either the baseline donor cell sample, the baseline receiver cell sample, or the restored cell sample.
# The nature of the soluble particles passing through the permeable membrane in the transwell co-culture experiments was investigated. Specifically, transwell co-culture experiments were carried out in the presence or absence of manumycin. Manumycin, -[(1S,5S,6R)-5-hydroxy-5-[(1E,3E,5E)-7-[(2-hydroxy-5-oxo-1-cyclopenten-1-yl)amino]-7-oxo-1,3,5-heptatrien-1-yl]-2-oxo-7-oxabicyclo[4.1.]hept-3-en-3-yl]-2E,4E,6R-trimethyl,2,4-decadienamide, is an antibiotic that acts a potent and selective farnesytransferase inhibitor. Mannumycin is also known to inhibit the release of exosomes. […] Further support for the role of exosome/microvesicles in mediating the disclosed cellular restoration process is shown in FIG. 36.
# [5] = system: Aged TNCs; test: Viability and cell count of aged TNCs cultured with CaMKP inhibitor (Trypan blue exclusion); type: cell-based, human
# Method: Aged TNCs (20×10^6 cells per sample) were cultured with CaMKP inhibitor (FT-0640107 shown below) at the following concentrations 25 uM, 10 uM, 5 uM, 1 uM & 0 (vehicle). After 48 and 72 hours, cells were harvested, counted using Turk's solution and percent viability assessed using Trypan blue exclusion.
# At 72 hours following treatment with the CaMPK inhibitor, FT-0640107, or vehicle, cells were harvested, counted and viability measured using Trypan blue exclusion.
compound,measurement,setting,value
"miR-1303: miRNA (miR-1303), UUUAGAGACGGGGUCUUGCUCU (listed as RNA, chemistry not fully specified; listed as Homo sapiens)",aged colony formation,[1],significant effect
CC(NS(=O)(=O)c1ccc2[nH]c(=O)c(=O)[nH]c2c1)C(=O)O (centres unmarked) [BCI-137],exosome production and total RNA content,[2],minimal effect
same,small and miRNA payload of exosomes,[2],depleted
same,aged MPB clonogenicity,[3]; inhibitor added to heterochronic cultures upon initial seeding,significant decrease
O=C(/C=C/c1ccc(/C=C/C(=O)Nc2ccc(C3=NCCN3)cc2)cc1)Nc1ccc(C2=NCCN2)cc1 [GW4869],toxicity to the aged cultures,[3],extremely toxic
same,restorative phenotype,[3]; blocking global exosome production (data not shown),abrogated
"CCCC[C@@H](C)/C=C(C)/C=C(\C)C(=O)NC1=C[C@@](O)(/C=C/C=C/C=C/C(=O)NC2=C(O)CCC2=O)[C@@H]2O[C@@H]2C1=O [manumycin, -[(1S,5S,6R)-5-hydroxy-5-[(1E,3E,5E)-7-[(2-hydroxy-5-oxo-1-cyclopenten-1-yl)amino]-7-oxo-1,3,5-heptatrien-1-yl]-2-oxo-7-oxabicyclo[4.1.]hept-3-en-3-yl]-2E,4E,6R-trimethyl,2,4-decadienamide]",morphology of restored cells,"[4]; 5 μM, vs absence of manumycin",less robust morphology
same,telomere length of restored cell sample,"[4]; R1-D1 pair, presence vs absence of manumycin",decreased
same,gene expression of restored cell samples,[4]; co-cultured in the presence of manumycin,did not display a change in expression levels similar to those observed in the absence of manumycin
same,protein expression (senescence-related factors) of restored cell samples,[4]; vs co-culture in the absence of manumycin,elevated levels of all proteins investigated
Nc1c(S(=O)(=O)O)cc(S(=O)(=O)[O-])c2cccc(O)c12.[Na+] [FT-0640107],cell number,"[5]; 1 μM, 72 hours, vs vehicle control and high dose (25 μM), donor A04",increase in cell number
same,viability at 1 µM,"[5]; Homo sapiens, 1 μM, 72 hours, donor A04",96.3%
same,viability at 25 µM,"[5]; Homo sapiens, high dose of 25 μM, 72 hours, donor A04",93%
same,cell viability and cell number,"[5]; donor A03, 48 or 72 hour timepoints",no significant difference
